The target of one data set is T1, α1a-AR (Homo sapiens, UniProt P35348).
T1 construct: expressed in transfected cells; host or cells: COS-7 cells (African Green monkey kidney), membranes
T1 sequence (P35348 1-466): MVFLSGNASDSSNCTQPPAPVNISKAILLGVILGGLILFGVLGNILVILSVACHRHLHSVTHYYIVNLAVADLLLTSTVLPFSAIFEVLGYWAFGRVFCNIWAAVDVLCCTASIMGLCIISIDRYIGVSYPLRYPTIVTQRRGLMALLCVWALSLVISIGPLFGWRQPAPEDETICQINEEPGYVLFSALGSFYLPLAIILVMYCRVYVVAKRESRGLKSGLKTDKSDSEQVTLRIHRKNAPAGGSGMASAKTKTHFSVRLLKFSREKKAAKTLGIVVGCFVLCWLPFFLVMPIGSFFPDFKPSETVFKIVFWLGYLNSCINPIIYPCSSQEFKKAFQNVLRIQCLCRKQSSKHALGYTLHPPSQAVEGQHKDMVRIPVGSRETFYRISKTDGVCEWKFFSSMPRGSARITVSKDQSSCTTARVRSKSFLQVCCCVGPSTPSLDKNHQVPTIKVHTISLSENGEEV
The data set is described as follows: α1-Adrenergic Receptor Binding Assay, 125I-HEAT radio-ligand binding, transfected COS-7 cell membranes, α1a subtype. Particulars: COS-7 membranes. A digest of the protocol: (§1)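 Competition binding of ¹²⁵I-HEAT ([…]) on membranes from COS-7 cells transfected with each human α1-AR subtype; membrane 0.5 ng/μL (α1a, α1b) or 13 ng/μL (α1d). Compound […] in half-log steps, triplicates, 1 hr at rt. Filtration and scintillation counting; Ki (nM) derived.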

The target of the next data set is T2, α1b-AR (Homo sapiens, UniProt P35368).
T2 construct: expressed in transfected cells; host or cells: COS-7 cells (African Green monkey kidney), membranes
T2 sequence (P35368 1-520): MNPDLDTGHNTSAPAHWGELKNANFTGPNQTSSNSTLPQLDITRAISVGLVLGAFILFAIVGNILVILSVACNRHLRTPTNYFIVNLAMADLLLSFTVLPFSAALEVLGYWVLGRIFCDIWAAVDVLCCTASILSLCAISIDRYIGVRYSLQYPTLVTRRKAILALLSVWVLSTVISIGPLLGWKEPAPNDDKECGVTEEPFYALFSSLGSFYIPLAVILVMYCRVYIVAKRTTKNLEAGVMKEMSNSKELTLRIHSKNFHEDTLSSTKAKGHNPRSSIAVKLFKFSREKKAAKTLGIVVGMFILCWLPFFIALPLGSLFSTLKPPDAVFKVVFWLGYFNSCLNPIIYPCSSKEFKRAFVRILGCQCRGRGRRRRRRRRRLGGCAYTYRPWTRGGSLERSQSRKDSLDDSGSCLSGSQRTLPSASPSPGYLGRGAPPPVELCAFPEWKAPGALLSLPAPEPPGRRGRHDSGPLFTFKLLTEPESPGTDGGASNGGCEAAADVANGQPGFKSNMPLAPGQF
The data set is described as follows: α1-Adrenergic Receptor Binding Assay, 125I-HEAT radio-ligand binding, transfected COS-7 cell membranes, α1b subtype. Particulars: COS-7 membranes. A digest of the protocol:
as §1

In another data set the target is T3, α1d-AR (Homo sapiens, UniProt P25100).
T3 construct: expressed in transfected cells; host or cells: COS-7 cells (African Green monkey kidney), membranes
T3 sequence (P25100 1-572): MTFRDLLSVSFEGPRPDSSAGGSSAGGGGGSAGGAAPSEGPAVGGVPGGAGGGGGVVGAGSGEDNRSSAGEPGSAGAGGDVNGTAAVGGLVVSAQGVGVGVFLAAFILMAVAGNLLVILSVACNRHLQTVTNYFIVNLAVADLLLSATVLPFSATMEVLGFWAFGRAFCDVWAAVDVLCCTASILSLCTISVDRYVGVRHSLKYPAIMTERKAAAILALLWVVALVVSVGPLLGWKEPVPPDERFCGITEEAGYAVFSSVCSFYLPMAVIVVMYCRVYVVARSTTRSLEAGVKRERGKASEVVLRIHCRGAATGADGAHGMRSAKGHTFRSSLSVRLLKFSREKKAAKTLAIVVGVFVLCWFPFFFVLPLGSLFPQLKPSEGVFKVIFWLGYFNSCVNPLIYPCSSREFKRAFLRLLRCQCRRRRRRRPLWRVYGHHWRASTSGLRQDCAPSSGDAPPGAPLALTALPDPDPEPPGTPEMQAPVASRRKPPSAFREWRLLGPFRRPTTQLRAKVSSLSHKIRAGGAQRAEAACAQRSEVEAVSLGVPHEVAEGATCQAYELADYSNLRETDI
The experiment in a line: α1-Adrenergic Receptor Binding Assay, 125I-HEAT radio-ligand binding, transfected COS-7 cell membranes, α1d subtype. The settings on record: COS-7 membranes. A digest of the protocol:
as §1

Where [1] appears, read: average value, read-out: Alpha 1 Ki α1a (1) Average Value.
The mark [2] stands for this setting: individual values, read-out: Alpha 1 Ki α1a (2) Individual Values.
The mark [3] stands for this setting: average value, read-out: Alpha 1 Ki α1b (1) Average Value.
[4] abbreviates: individual values, read-out: Alpha 1 Ki α1b (2) Individual Values.
Where [5] appears, read: average value, read-out: Alpha 1 Ki α1d (1) Average Value.
The mark [6] stands for this setting: individual values, read-out: Alpha 1 Ki α1d (2) Individual Values.

In general, Ki refers to a measure of affinity in units of concentration, obtained from inhibition or displacement. Usually melting point stands for the temperature, or range, at which the solid turns liquid.

Several values for one entry are separate records, joined by “and”; a condition that tells them apart may be missing. Equal values may be shown once. Read-outs that look alike come from different tables or passages of the source.

With `COc1cc2c(cc1OC)N(C(=O)C1=NOC(CN3CCN(c4ccccc4OC(C)C)CC3)C1)CC2` (centres unmarked) [Compound 23, (5,6-dimethoxy-2,3-dihydro-indol-1-yl)-{5-[4-(2-isopropoxy-phenyl)-piperazin-1-ylmethyl]-4,5-dihydro-isoxazol-3-yl}-methanone], the Ki stood at 5.65 nM at α1a-AR (setting [1]); 5.65 nM at α1a-AR (setting [2]); 259 nM on α1b-AR (setting [3]); 259 nM at α1b-AR (setting [4]); 6.56 nM on α1d-AR (setting [5]); 6.56 nM on α1d-AR (setting [6]).

With `CC(=O)N1CCc2ccc(NC(=O)C3=NOC(CN4CCN(c5ccccc5OC(C)C)CC4)C3)cc21` (centres unmarked) [Compound 24, 5-[4-(2-isopropoxy-phenyl)-piperazin-1-ylmethyl]-4,5-dihydro-isoxazole-3-carboxylic acid (1-acetyl-2,3-dihydro-1H-indol-6-yl)-amide], the Ki at α1a-AR (setting [1]) was found to be 5.46 nM; on α1a-AR (setting [2]), 5.46 nM; on α1b-AR (setting [3]) it was 101 nM; at α1b-AR (setting [4]), 101 nM; on α1d-AR (setting [5]), 3.95 nM; on α1d-AR (setting [6]) it was 3.95 nM.

For `Cc1ccc2c(c1)CCN2C(=O)C1=NOC(CN2CCN(c3ccccc3OC(C)C)CC2)C1` (centres unmarked) [Compound 25, {5-[4-(2-isopropoxy-phenyl)-piperazin-1-ylmethyl]-4,5-dihydro-isoxazol-3-yl}-(5-methyl-2,3-dihydro-indol-1-yl)-methanone], the Ki at α1a-AR (setting [1]) stood at 3.5 nM; at α1a-AR (setting [2]) it was 3.5 nM; at α1b-AR (setting [3]), 71 nM; at α1b-AR (setting [4]), 71 nM; at α1d-AR (setting [5]), 0.12 nM; on α1d-AR (setting [6]) it was 0.12 nM.

Turning to `CC(C)Oc1ccccc1N1CCN(CC2CC(C(=O)N3CCCc4ccccc43)=NO2)CC1` (centres unmarked) [Compound 26, (3,4-dihydro-2H-quinolin-1-yl)-{5-[4-(2-isopropoxy-phenyl)-piperazin-1-ylmethyl]-4,5-dihydro-isoxazol-3-yl}-methanone], the Ki at α1a-AR (setting [1]) worked out at 6.7 nM; at α1a-AR (setting [2]), 6.7 nM; at α1b-AR (setting [3]) it was 258 nM; at α1b-AR (setting [4]) it was 258 nM; at α1d-AR (setting [5]), 11 nM; at α1d-AR (setting [6]), 11 nM.

For the molecule `CC(C)Oc1ccccc1N1CCN(CC2CC(C(=O)N3CCC(Cc4ccccc4)CC3)=NO2)CC1` (centres unmarked) [Compound 27, (4-benzyl-piperidin-1-yl)-{5-[4-(2-isopropoxy-phenyl)-piperazin-1-ylmethyl]-4,5-dihydro-isoxazol-3-yl}-methanone], the Ki turned out to be 11.6 nM at α1a-AR (setting [1]); 11.6 nM at α1a-AR (setting [2]); 219 nM on α1b-AR (setting [3]); 219 nM on α1b-AR (setting [4]); 6.5 nM at α1d-AR (setting [5]); 6.5 nM at α1d-AR (setting [6]).

For the molecule `CC(C)Oc1ccccc1N1CCN(CC2CC(C(=O)N3CCOCC3)=NO2)CC1` (centres unmarked) [Compound 28, {5-[4-(2-isopropoxy-phenyl)-piperazin-1-ylmethyl]-4,5-dihydro-isoxazol-3-yl}-morpholin-4-yl-methanone], the Ki on α1a-AR (setting [1]) is 3 nM; on α1a-AR (setting [2]), 3 nM; at α1b-AR (setting [3]) it was 691 nM; at α1b-AR (setting [4]), 691 nM; at α1d-AR (setting [5]), 27.2 nM; at α1d-AR (setting [6]), 27.2 nM.

As to `CC(C)Oc1ccccc1N1CCN(CC2CC(C(=O)N3CCC(Oc4ccccc4)CC3)=NO2)CC1` (centres unmarked) [Compound 29, {5-[4-(2-isopropoxy-phenyl)-piperazin-1-ylmethyl]-4,5-dihydro-isoxazol-3-yl}-(4-phenoxy-piperidin-1-yl)-methanone], the Ki on α1a-AR (setting [1]) is 6.8 nM; at α1a-AR (setting [2]), 2.2 nM and 11.4 nM; at α1b-AR (setting [3]), 672 nM; at α1b-AR (setting [4]) it was 1010 nM and 333 nM; on α1d-AR (setting [5]) it was 8.2 nM; on α1d-AR (setting [6]), 5.6 nM and 10.8 nM.

In turn, `CC(C)Oc1ccccc1N1CCN(CC2CC(C(=O)N3CCC(S(=O)(=O)c4ccccc4)CC3)=NO2)CC1` (centres unmarked) [Compound 30, (4-benzenesulfonyl-piperidin-1-yl)-{5-[4-(2-isopropoxy-phenyl)-piperazin-1-ylmethyl]-4,5-dihydro-isoxazol-3-yl}-methanone] yielded a melting point of 74 to 76 °C. Further, the Ki on α1a-AR (setting [1]) was 3.4 nM. The Ki at α1a-AR (setting [2]) was 3.4 nM. Besides, on α1b-AR (setting [3]), the Ki amounted to 173 nM. For the same molecule, the Ki at α1b-AR (setting [4]) was 164 nM and 183 nM. Also, the Ki at α1d-AR (setting [5]) was 4.5 nM. Besides, the Ki on α1d-AR (setting [6]) was 5.8 nM and 3.2 nM.

`CC(C)Oc1ccccc1N1CCN(CC2CC(C(=O)N3CCC(c4ccccc4)(c4ccccc4)CC3)=NO2)CC1` (centres unmarked) [Compound 31, (4,4-diphenyl-piperidin-1-yl)-{5-[4-(2-isopropoxy-phenyl)-piperazin-1-ylmethyl]-4,5-dihydro-isoxazol-3-yl}-methanone]: the melting point fell in the range of 61 to 63 °C. The Ki at α1a-AR (setting [1]) worked out at 25 nM. For the same molecule, the Ki at α1a-AR (setting [2]) stood at 25 nM. For the same molecule, the Ki at α1b-AR (setting [3]) stood at 248 nM. Besides, the Ki at α1b-AR (setting [4]) stood at 248 nM. Besides, the Ki on α1d-AR (setting [5]) was found to be 9.6 nM. Besides, the Ki on α1d-AR (setting [6]) is 9.6 nM.

Consider `CC(C)Oc1ccccc1N1CCN(CC2CC(C(=O)N3CCC(Oc4ccccn4)CC3)=NO2)CC1` (centres unmarked) [Compound 32, {5-[4-(2-isopropoxy-phenyl)-piperazin-1-ylmethyl]-4,5-dihydro-isoxazol-3-yl}-[4-(pyridin-2-yloxy)-piperidin-1-yl]-methanone], for which the Ki turned out to be 41.7 nM at α1a-AR (setting [1]); 41.7 nM at α1a-AR (setting [2]); 264 nM on α1b-AR (setting [3]); 264 nM at α1b-AR (setting [4]); 44.6 nM at α1d-AR (setting [5]); 44.6 nM on α1d-AR (setting [6]).

`COc1ccccc1C1CCN(C(=O)C2=NOC(CN3CCN(c4ccccc4OC(C)C)CC3)C2)CC1` (centres unmarked) [Compound 33, {5-[4-(2-isopropoxy-phenyl)-piperazin-1-ylmethyl]-4,5-dihydro-isoxazol-3-yl}-[4-(2-methoxy-phenyl)-piperidin-1-yl]-methanone]: the Ki on α1a-AR (setting [1]) was determined as 19 nM; at α1a-AR (setting [2]) it was 19 nM; at α1b-AR (setting [3]), 254 nM; at α1b-AR (setting [4]), 254 nM; at α1d-AR (setting [5]) it was 20 nM; at α1d-AR (setting [6]), 20 nM.

For `CC(C)Oc1ccccc1N1CCN(CC2CC(C(=O)N3CCC(Oc4ccc(Cl)cc4)CC3)=NO2)CC1` (centres unmarked) [Compound 34, [4-(4-chloro-phenoxy)-piperidin-1-yl]-{5-[4-(2-isopropoxy-phenyl)-piperazin-1-ylmethyl]-4,5-dihydro-isoxazol-3-yl}-methanone], the Ki on α1a-AR (setting [1]) came to 40 nM; on α1a-AR (setting [2]) it was 40 nM; at α1b-AR (setting [3]), 255 nM; on α1b-AR (setting [4]) it was 255 nM; on α1d-AR (setting [5]), 27 nM; on α1d-AR (setting [6]) it was 27 nM.

Regarding `CC(C)Oc1ccccc1N1CCN(CC2CC(C(=O)N3CCCC3)=NO2)CC1` (centres unmarked) [Compound 35, {5-[4-(2-isopropoxy-phenyl)-piperazin-1-ylmethyl]-4,5-dihydro-isoxazol-3-yl}-pyrrolidin-1-yl-methanone], the Ki on α1a-AR (setting [1]) was 3.65 nM; at α1a-AR (setting [2]), 1.6 nM and 5.7 nM; at α1b-AR (setting [3]) it was 212 nM; on α1b-AR (setting [4]), 183 nM and 242 nM; on α1d-AR (setting [5]), 9 nM; on α1d-AR (setting [6]), 11 nM and 7 nM.

(Values after patent US20080221116A1, “ISOXAZOLINE ALPHA 1a/1d ADRENORECEPTOR ANTAGONISTS” (priority 2006, published 2008).)
